Data: paper PMC8401042, “Non-Toxic Dimeric Peptides Derived from the Bothropstoxin-I Are Potent SARS-CoV-2 and Papain-like Protease Inhibitors” (Molecules, 2021)
Bridge positions count the residues as written; N and C are the ends. Ends that are not written are not given here. I, II: the chains in the order shown.

Assays:
[1] = molecular target: T1, SARS-CoV-2 PLpro (Severe acute respiratory syndrome coronavirus 2, UniProt P0DTD1); experiment: SARS-CoV-2 PLpro FRET enzyme inhibition assay; assay type: biochemical
[2] = test system: SARS-CoV-2; conditions: 24 h, 100 µM
[3] = molecular target: T1, SARS-CoV-2 PLpro; experiment: Microscale thermophoresis (MST) binding assay; conditions: 100 nM labelled PLpro, peptides 0.015 to 500 µM, 50 mM HEPES pH 7.5, 100 mM NaCl, 2 mM DTT, DMSO 5%; triplicate, Hill fit
[4] = molecular target: SARS-CoV-2 Papain-like protease (PL^pro) (SARS-CoV-2) (UniProt P0DTD1)
[5] = molecular target: SARS-CoV-2 Papain-like protease (PL^pro) (SARS-CoV-2) (UniProt P0DTD1); remark: listed apart in the source

Row | Molecule | inhibition at 10 µM ([1]; 10 µM peptide, 70 nM enzyme, 27 µM substrate, 37 °C, […]) | IC50 ([1]; calculated from IC50 values, Figure 3A, read-out: pIC50 (−logIC50), PLpro (converted)) | SARS-CoV-2 % of inhibition at 100 µM [2] | Kd [3] | percent inhibition of PL^pro activity at 10 µM peptide [4] | IC50 of inhibition of PL^pro activity (cleavage of a FRET peptide substrate) [5]
1 | I: KKYRYHLKPFKK-NH2 / II: KKYRYHLKPFK / III: KKYRYHLKPF / IV: KKYRYHLKPF (amide I:11-IV:C, I:12-II:C, II:11-III:C) [A11] | 98% | 1.41 µM | 54% | 1 ± 0.2 µM | – | –
2 | IFGAILPLALGALKNLIK-NH2 [Hylin a1] | – | – | – | – | 13% | > 10 µM
